Data from the NIST ThermoML archive (doi:10.1021/acs.jced.9b00026).

Experiments:
[1] = wn = mass fraction of the nth substance listed; details: for surface tension liquid-gas: Ring tensiometer; for mass density: 101 kPa, Liquid, Vibrating tube method
[2] = Ring tensiometer

O [water] + C[C@H](O)C(=O)O
[1], w2 = 0
Details | surface tension liquid-gas [mN/m]
298 K | 71.53
308 K | 70.02
318 K | 68.48
328 K | 67.18

O [water] + CSCC[C@H](N)C(=O)O
[1], w2 = 0
Details | surface tension liquid-gas [mN/m]
298 K | 71.52
308 K | 69.94
318 K | 68.54
328 K | 66.78

O [water] + O=C(O)[C@@H]1CCCN1
[1], w2 = 0
Details | surface tension liquid-gas [mN/m]
298 K | 71.61
308 K | 70.1
318 K | 68.56
328 K | 66.76

N[C@@H](CO)C(=O)O [L-serine] + O
[1]
Details | mass density, w1 = 0.005 [kg/m3] | surface tension liquid-gas, w1 = 0.00504 [mN/m] | surface tension liquid-gas, w1 = 0.01 [mN/m] | surface tension liquid-gas, w1 = 0.02001 [mN/m] | surface tension liquid-gas, w1 = 0.03 [mN/m] | surface tension liquid-gas, w1 = 0.03999 [mN/m] | surface tension liquid-gas, w1 = 0.05 [mN/m]
298 K | 999.1 | 71.53 | 71.64 | 71.7 | 71.85 | 71.98 | 72.12
308 K | – | 69.85 | 69.98 | 70.15 | 70.31 | 70.44 | 70.56
318 K | – | 68.58 | 68.6 | 68.84 | 68.87 | 69.09 | 69.23
328 K | – | 66.76 | 66.84 | 67.01 | 67.19 | 67.28 | 67.5

C[C@H](O)C(=O)O [(S)-2-hydroxypropanoic acid] + O
[1]
Details | mass density, w1 = 0.01 [kg/m3] | surface tension liquid-gas, w1 = 0.002 [mN/m] | surface tension liquid-gas, w1 = 0.004 [mN/m] | surface tension liquid-gas, w1 = 0.006 [mN/m] | surface tension liquid-gas, w1 = 0.008 [mN/m]
298 K | 999.5 | 70.66 | 69.69 | 68.73 | 67.69
308 K | – | 69.32 | 68.36 | 67.63 | 67.06
318 K | – | 68.04 | 67.36 | 66.46 | 65.96
328 K | – | 67.07 | 66.17 | 65.34 | 64.92

O [water] + N[C@@H](CO)C(=O)O
[1], w2 = 0
Details | surface tension liquid-gas [mN/m]
298 K | 71.46
308 K | 69.71
318 K | 68.51
328 K | 66.66

O=C(O)[C@@H]1CCCN1 [L-proline] + O
[1]
Details | mass density, w1 = 0.02 [kg/m3] | surface tension liquid-gas, w1 = 0.01996 [mN/m] | surface tension liquid-gas, w1 = 0.03996 [mN/m] | surface tension liquid-gas, w1 = 0.05995 [mN/m] | surface tension liquid-gas, w1 = 0.07996 [mN/m] | surface tension liquid-gas, w1 = 0.09995 [mN/m]
298 K | 1002.6 | 71.56 | 71.56 | 71.55 | 71.5 | 71.45
308 K | – | 70.14 | 70.13 | 70.12 | 70.05 | 69.95
318 K | – | 68.51 | 68.51 | 68.46 | 68.44 | 68.4
328 K | – | 66.8 | 66.79 | 66.75 | 66.67 | 66.46

NC(=O)CC[C@H](N)C(=O)O [L-glutamine] + O
[1]
Details | mass density, w1 = 0.005 [kg/m3] | surface tension liquid-gas, w1 = 0.00499 [mN/m] | surface tension liquid-gas, w1 = 0.00998 [mN/m] | surface tension liquid-gas, w1 = 0.01501 [mN/m] | surface tension liquid-gas, w1 = 0.02001 [mN/m] | surface tension liquid-gas, w1 = 0.02499 [mN/m] | surface tension liquid-gas, w1 = 0.02999 [mN/m]
298 K | 998.8 | 71.43 | 71.49 | 71.53 | 71.55 | 71.55 | 71.55
308 K | – | 69.29 | 69.65 | 69.78 | 69.89 | 69.96 | 70.02
318 K | – | 68.34 | 68.42 | 68.59 | 68.58 | 68.64 | 68.67
328 K | – | 66.55 | 66.69 | 66.76 | 66.85 | 66.98 | 67.04

O [water] + NC(=O)CC[C@H](N)C(=O)O
[1], w2 = 0
Details | surface tension liquid-gas [mN/m]
298 K | 71.06
308 K | 69.1
318 K | 68.31
328 K | 66.41

O [water] + CCO
[1], w2 = 0
Details | surface tension liquid-gas [mN/m]
298 K | 72.04
313 K | 69.89

CC(C)[C@H](N)C(=O)O [L-valine] + O
[1]
Details | mass density, w1 = 0.005 [kg/m3] | surface tension liquid-gas, w1 = 0.005 [mN/m] | surface tension liquid-gas, w1 = 0.01 [mN/m] | surface tension liquid-gas, w1 = 0.02 [mN/m] | surface tension liquid-gas, w1 = 0.03 [mN/m] | surface tension liquid-gas, w1 = 0.04 [mN/m]
298 K | 998.1 | 70.53 | 70.5 | 69.48 | 68.4 | 67.12
308 K | – | 69.19 | 68.93 | 68.17 | 67.08 | 66.41
318 K | – | 67.61 | 67.61 | 66.54 | 65.36 | 64.53
328 K | – | 66.3 | 66.02 | 65.14 | 63.84 | 63.26

CCO [ethanol] + O
surface tension liquid-gas [mN/m], [1]
Details | w1 = 0.05 | w1 = 0.1 | w1 = 0.15 | w1 = 0.2
298 K | 55.14 | 47.34 | 41.96 | 38.2
313 K | 53.13 | 45.92 | 40.41 | 36.71

O=C(O)CC(O)C(=O)O (stereo not drawn) [hydroxybutanedioic acid] + O
[1]
Details | mass density, w1 = 0.01 [kg/m3] | surface tension liquid-gas, w1 = 0.01049 [mN/m] | surface tension liquid-gas, w1 = 0.02026 [mN/m] | surface tension liquid-gas, w1 = 0.03004 [mN/m] | surface tension liquid-gas, w1 = 0.04002 [mN/m] | surface tension liquid-gas, w1 = 0.06001 [mN/m] | surface tension liquid-gas, w1 = 0.07998 [mN/m] | surface tension liquid-gas, w1 = 0.1 [mN/m]
298 K | 1000.8 | 71.39 | 71.2 | 71.09 | 70.92 | 70.61 | 70.44 | 70.2
308 K | – | 69.64 | 69.49 | 69.42 | 69.28 | 69.18 | 68.83 | 68.62
318 K | – | 68.16 | 68.16 | 68.11 | 67.78 | 67.63 | 67.49 | 67.25
328 K | – | 66.67 | 66.54 | 66.48 | 66.43 | 66.24 | 66.05 | 65.89

O [water]
[2]
Details | surface tension liquid-gas
298 K | 71.52 mN/m [middle of 7 runs]
308 K | 69.73 mN/m [middle of 7 runs]
313 K | 69.89 mN/m
318 K | 68.48 mN/m [middle of 7 runs]
328 K | 66.76 mN/m [middle of 7 runs]

O [water] + O=C(O)CC(O)C(=O)O
[1], w2 = 0
Details | surface tension liquid-gas [mN/m]
298 K | 71.52
308 K | 69.73
318 K | 68.3
328 K | 66.81

CSCC[C@H](N)C(=O)O [L-methionine] + O
[1]
Details | mass density, w1 = 0.005 [kg/m3] | surface tension liquid-gas, w1 = 0.005 [mN/m] | surface tension liquid-gas, w1 = 0.01 [mN/m] | surface tension liquid-gas, w1 = 0.02 [mN/m] | surface tension liquid-gas, w1 = 0.03 [mN/m] | surface tension liquid-gas, w1 = 0.04001 [mN/m]
298 K | 998.5 | 71.39 | 71.3 | 71.02 | 70.77 | 70.61
308 K | – | 69.89 | 69.69 | 69.45 | 69.15 | 68.9
318 K | – | 68.4 | 68.3 | 68.06 | 67.74 | 67.28
328 K | – | 66.65 | 66.56 | 66.32 | 65.78 | 64.97
